Assay results as given in ChEMBL document CHEMBL5604063, “ASAP - DENV-2 NS2B-NS3 protease fluorescence dose response” (2024).
pIC50: −log10 of the molar value. Where “and” joins values, the source holds several entries; their conditions need not be identical. Equal entries are not always repeated.

Legend:
Genome polyprotein [1] = molecular target: T1, Genome polyprotein (dengue virus type 2, UniProt P29990); assay type: functional, Thailand/16681/1984
Genome polyprotein [2] = molecular target: T1, Genome polyprotein; assay type: functional, Thailand/16681/1984; remark: listed apart in the source

T1 sequence (P29990 1346-1475 limits assumed): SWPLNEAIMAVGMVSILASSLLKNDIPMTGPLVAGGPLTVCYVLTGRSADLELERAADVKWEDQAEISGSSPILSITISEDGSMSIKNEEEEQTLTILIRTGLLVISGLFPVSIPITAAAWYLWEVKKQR
T1 sequence (P29990 1476-2093 limits assumed): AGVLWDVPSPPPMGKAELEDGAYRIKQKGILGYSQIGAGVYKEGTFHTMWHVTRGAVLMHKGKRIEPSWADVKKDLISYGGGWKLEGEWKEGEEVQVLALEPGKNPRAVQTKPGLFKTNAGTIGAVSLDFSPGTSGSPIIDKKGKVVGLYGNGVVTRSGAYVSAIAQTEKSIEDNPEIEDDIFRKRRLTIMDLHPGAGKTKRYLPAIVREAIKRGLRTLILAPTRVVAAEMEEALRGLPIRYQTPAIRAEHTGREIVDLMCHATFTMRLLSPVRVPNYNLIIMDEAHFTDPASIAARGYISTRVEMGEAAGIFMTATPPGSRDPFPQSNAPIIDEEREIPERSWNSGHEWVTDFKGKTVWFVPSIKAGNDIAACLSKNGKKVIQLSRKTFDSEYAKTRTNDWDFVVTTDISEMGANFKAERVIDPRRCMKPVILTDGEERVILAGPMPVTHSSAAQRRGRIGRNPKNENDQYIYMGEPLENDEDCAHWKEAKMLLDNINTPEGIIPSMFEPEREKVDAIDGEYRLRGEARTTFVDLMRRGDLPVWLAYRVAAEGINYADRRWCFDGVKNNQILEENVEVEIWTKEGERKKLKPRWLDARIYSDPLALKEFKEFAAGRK

Structure (SMILES) | pIC50 (Genome polyprotein [1]) | pIC50 (Genome polyprotein [2])
O=C(Nc1ccc2c(c1)CNC2)c1ccc2c(c1)C1(CC1)C(=O)N2 | < 4.00 | < 4.00
Cc1c(C(=O)Nc2cccc(CS(C)(=O)=O)c2)cc(C2CC2)n1C | < 4.00 | < 4.00
O=C(NCC(F)F)[C@H](Nc1ncc2c(n1)CNC2)c1cc(Cl)cc(C2CC2)c1 | < 4.00 | < 4.00
O=C1Cc2c(cccc2C(=O)Nc2ccc3c(c2)[C@H](O)CCO3)N1 | < 4.00 | < 4.00
O=C1Cc2c(cccc2C(=O)Nc2ccnn2Cc2ccncc2)N1 | < 4.00 | < 4.00
NC(=O)COc1ccc(Br)cc1[C@H](Nc1ccc2c(c1)CNC2)C(=O)NCC(F)F | < 4.00 | < 4.00
Cn1nc(CNc2cc(-c3cccnc3)ccn2)cc1C1CC1 | < 4.00 | < 4.00
CC(=O)N(c1ccc2c(c1)CNC2)[C@]1(c2cc(Cl)cc(C3CC3)c2)CN(C)C1=O | < 4.00 | < 4.00
CO[C@H]1Cc2ccc(NC(=O)c3cc(C4CC4)n(C)c3C)cc2C1 | < 4.00 | < 4.00
CN1CCC[C@H](c2nc3c(C(=O)Nc4ccc5c(c4)CNC5)cc(F)cc3[nH]2)C1=O | < 4.00 | < 4.00
O=C(NCC(F)F)[C@H](Nc1ccc2c(c1)CNC2)c1cc(Br)cc2nc[nH]c12 | < 4.00 | < 4.00
O=C1Cc2c(cccc2C(=O)Nc2nnc3n2CCCS3)N1 | < 4.00 | < 4.00
O=C(O)COc1ccc(Cl)cc1[C@H](Nc1ccc2c(c1)CNC2)C(=O)NCC(F)F | < 4.00 | < 4.00
NC(=O)c1cn(C2CCCC2)nc1NC(=O)c1cccc2c1CC(=O)N2 | < 4.00 | < 4.00
O=C1Cc2c(cccc2C(=O)Nc2cnn(Cc3ccncc3)c2)N1 | < 4.00 | < 4.00
O=C1Cc2c(cccc2C(=O)Nc2ccc3[nH]nnc3c2)N1 | < 4.00 | < 4.00
C=C(C)c1ccc(Cl)cc1[C@H](Nc1ccc2c(c1)CNC2)C(=O)NCC(F)F | < 4.00 | < 4.00
N#CCOc1ccc(Br)cc1[C@H](Nc1ccc2c(c1)CNC2)C(=O)NCC(F)F | < 4.00 | < 4.00
CO[C@]1(C)C(=O)Nc2cc(F)cc(C(=O)Nc3ccc4c(c3)CNC4)c21 | < 4.00 | < 4.00
Clc1cc(CNc2ccc3c(n2)CNC3)c2cn[nH]c2c1 | < 4.00 | < 4.00
Cc1c(C(=O)Nc2cccc(-c3nc(C4CC4)no3)c2)cc(C2CC2)n1C | < 4.00 | < 4.00

Structure (SMILES) | pIC50 (Genome polyprotein [1]) | pIC50 (Genome polyprotein [2])
CC(=O)N1CC[C@]2(C1)C(=O)Nc1cccc(C(=O)Nc3ccc4c(c3)CNC4)c12 | < 4.00 | < 4.00
N#Cc1cccc(-c2nc3c(C(=O)Nc4cccc(F)c4)cc(Cl)cc3[nH]2)c1 | < 4.00 | < 4.00
O=C(NCC(F)F)[C@H](Nc1cc2c(cc1Br)CNC2)c1cc(Cl)cc(C2CC2)c1 | < 4.00 | 4.04 and 4.15
CNC(=O)c1cc(Br)cc([C@H](Nc2ccc3c(c2)CNC3)C(=O)NCC(F)F)c1 | < 4.00 | < 4.00
O=C(Nc1ccc2c(c1)CN[C@H]2CC1CC1)c1cc(F)cc2[nH]ncc12 | 4.42 | 4.50 and 4.65
O=C1Nc2ccc(C(=O)Nc3ccc4c(c3)CNC4)cc2C1=O | 5.57 and 5.70 | 5.27 and 5.24
CC1(C)NCc2cc(NC(=O)c3cc(F)cc4[nH]ncc34)ccc21 | < 4.00 | < 4.00
CC(C)(C)OC(=O)N1Cc2ccc(N[C@H](C(=O)O)c3cc(Cl)cc4[nH]ncc34)cc2C1 | 4.11 | 4.24 and 4.38
Cc1c(C(=O)Nc2cccc(-c3ccoc3)c2)cc(C2CC2)n1C | < 4.00 | < 4.00
Cc1c(C(=O)Nc2cc(C(=O)N3CC4(CCO4)C3)ccn2)cc(C2CC2)n1C | < 4.00 | < 4.00
O=C1Cc2c(cccc2C(=O)Nc2cnc(OC3CCC3)nc2)N1 | < 4.00 | < 4.00
CN(C)C(=O)C[C@H]1NCc2cc(NC(=O)c3cc(Cl)cc4[nH]ncc34)ccc21 | < 4.00 | < 4.00
Cn1nc([C@H](Nc2cc([C@H]3CCOC3)ccn2)C(F)(F)F)cc1C1CC1 | < 4.00 | < 4.00
C[C@H]1NCc2ccc(NC(=O)c3cc(Cl)cc4[nH]ncc34)cc21 | < 4.00 | < 4.00
N#CCc1cc(NC(=O)c2cc(F)cc3[nH]ncc23)cc2c1CNC2 | 4.63 | 4.42 and 4.72
O=C(NCC(F)F)[C@H](Nc1ccc2c(c1)CNC2)c1cc(Cl)cc(Cl)c1OCCN1CCOCC1 | < 4.00 | < 4.00
CC(=O)N[C@]1(C)C(=O)Nc2cc(F)cc(C(=O)Nc3ccc4c(c3)CNC4)c21 | < 4.00 | < 4.00
O=C(NCC(F)F)[C@H](Nc1cnc2c(c1)CNC2)c1cc(Cl)cc(C2CC2)c1 | < 4.00 | < 4.00
O=C1Cc2c(cccc2C(=O)Nc2cc(Br)c3ncnn3c2)N1 | < 4.00 | < 4.00
O=C(Nc1ccc2c(c1)CNC2)c1cc(Cl)cc2[nH]c(-c3cccc(F)c3)nc12 | 5.58 | 4.76 and 4.89
C[C@]1(S(C)(=O)=O)C(=O)Nc2cc(F)cc(C(=O)Nc3ccc4c(c3)CNC4)c21 | < 4.00 | < 4.00

Structure (SMILES) | pIC50 (Genome polyprotein [1]) | pIC50 (Genome polyprotein [2])
NCCCn1c(C2CC2)cc(C(=O)Nc2cc([C@H]3CCOC3)ccn2)c1C1CC1 | < 4.00 | < 4.00
Cc1c(C(=O)Nc2ccc3c(c2F)CCN(C)C3=O)cc(C2CC2)n1C | < 4.00 | < 4.00
Cc1c(C(=O)Nc2cccc(Cn3cccn3)c2)cc(C2CC2)n1C | < 4.00 | < 4.00
O=C1Cc2c(cccc2C(=O)Nc2ccc(O[C@H]3CCOC3)nc2)N1 | < 4.00 | < 4.00
O=C(NCC(F)F)[C@H](Nc1ccc2c(c1)CNC2)c1cc(Br)ccc1OCc1ccccn1 | < 4.00 | < 4.00
O=C1Cc2c(cccc2C(=O)Nc2cccc(-c3cn[nH]c3)c2)N1 | < 4.00 | < 4.00
Clc1cc(CNc2ccc3c(c2)[C@@H]2CC[C@H]3N2)c2cn[nH]c2c1 | < 4.00 | < 4.00
O=C1Cc2c(cccc2C(=O)Nc2cccc(Cc3nn[nH]n3)c2)N1 | < 4.00 | < 4.00
O=C(Nc1ccc2c(c1)CN[C@H]2C1CC1)c1cc(F)cc2[nH]ncc12 | 4.87 | 4.81 and 4.79
NCc1cccc(NC(=O)c2cccc3c2CC(=O)N3)c1 | < 4.00 | < 4.00
CS(=O)(=O)c1cncc(-c2cc(F)cc(C(=O)Nc3ccc4c(c3)CNC4)c2)c1 | < 4.00 | < 4.00
Cc1c(C(=O)Nc2ccc3c(c2)C(=O)NC3)cc(C2CC2)n1C | < 4.00 | < 4.00
O=C(NCC(F)F)[C@H](Nc1ccc2c(c1)CNC2)c1cc(Br)cc2cn[nH]c12 | < 4.00 | < 4.00
N#Cc1cccc(-c2nc3c(C(=O)Nc4ccccn4)cc(Cl)cc3[nH]2)c1 | 4.54 | < 4.00
O=C(NCC(F)F)[C@H](Nc1ccc2c(c1)CNC2)c1cc(Br)ccc1C1CC1 | < 4.00 | < 4.00
Nc1ccncc1-c1cc(F)cc(C(=O)Nc2ccc3c(c2)CNC3)c1 | < 4.00 | < 4.00
CCc1cnc2c(NC(=O)c3cccc4c3CC(=O)N4)cnn2c1 | < 4.00 | < 4.00
C[C@H]1C(=O)Nc2ccc(C(=O)Nc3ccc4c(c3)CNC4)cc21 | 4.46 | 4.60 and 4.76
COCCN(C)C(=O)[C@H](Nc1ccc2c(c1)CNC2)c1cc(Cl)cc(C2CC2)c1 | < 4.00 | < 4.00
O=C1Cc2c(cccc2C(=O)Nc2ccc3c(n2)CNC3)N1 | < 4.00 | < 4.00
O=C1C[C@H](c2cccc(-c3cc(F)cc(C(=O)Nc4ccc5c(c4)CNC5)c3)c2)N1 | < 4.00 | < 4.00

Structure (SMILES) | pIC50 (Genome polyprotein [1]) | pIC50 (Genome polyprotein [2])
CC(=O)N(c1ccc2c(c1)CNC2)[C@]1(c2cc(Cl)cc(C3CC3)c2)CCCN(C)C1=O | < 4.00 | < 4.00
O=C1Cc2c(cccc2C(=O)Nc2nc([C@H]3CCCOC3)cs2)N1 | < 4.00 | < 4.00
Cc1c(C(=O)Nc2cccc(CN3CCCC3=O)c2)cc(C2CC2)n1C | < 4.00 | < 4.00
CN(C)C(=O)C[C@H]1NCc2cc(NC(=O)c3cc(F)cc4[nH]ncc34)ccc21 | < 4.00 | 4.26 and 4.14
NCCc1cccc(NC(=O)c2cccc3c2CC(=O)N3)c1 | < 4.00 | < 4.00
O=C(NCC(F)F)[C@H](Nc1ccc2c(c1)CNC2)c1cc(Br)cc2ccccc12 | < 4.00 | < 4.00
C[C@H]1NCc2cc(NC(=O)c3cc(F)cc4[nH]ncc34)ccc21 | 4.16 | 4.21 and 4.17
O=C(Nc1ccc2c(c1)CNC2)c1cc(Cl)cc2[nH]c(-c3ccccc3)nc12 | 5.48 | 4.29 and 4.67
O=C1Cc2c(cccc2C(=O)Nc2ccc(N3CCOC3=O)nc2)N1 | < 4.00 | < 4.00
O=C(NCC(F)F)[C@H](Nc1ccc2c(c1)CNC2)c1cc(Br)ccc1Oc1ccc(Cl)c(Cl)c1 | < 4.00 | < 4.00
Cc1cc(NC(=O)c2cc(C3CC3)n(C)c2C)ccc1OC1CCOCC1 | < 4.00 | < 4.00
O=C(Nc1cc2c(cn1)CNC2)c1cc(F)cc2[nH]ncc12 | < 4.00 | < 4.00
O=C(Nc1ccc2c(c1)CN[C@H]2C(=O)O)c1cc(F)cc2[nH]ncc12 | 4.15 | 4.10 and < 4.00
Cc1c(C(=O)Nc2ccc3c(c2)CN(C)C3=O)cc(C2CC2)n1C | < 4.00 | < 4.00
Cn1nc(CNc2cc([C@H]3CCOC3)ccn2)cc1C1CC1 | < 4.00 | < 4.00
O=C(O)C[C@H]1NCc2cc(NC(=O)c3cc(Cl)cc4[nH]ncc34)ccc21 | < 4.00 | < 4.00
O=C(NCC(F)F)[C@H](Nc1ccc2c(c1)CNC2)c1cc(Cl)ccc1OC[C@H]1CCCO1 | < 4.00 | < 4.00
O=C([C@H](Nc1ccc2c(c1)CNC2)c1cc(Cl)cc(C2CC2)c1)N1CCOCC1 | < 4.00 | < 4.00
C[C@H](NC(=O)c1cccc2c1CC(=O)N2)c1nnc2n1CCCC2 | < 4.00 | < 4.00
CC(C)n1nncc1-c1cc(F)cc(C(=O)Nc2ccc3c(c2)CNC3)c1 | 4.05 | < 4.00
